The values below come from publication PMC11078746 (Nature, 2024).

In series [1] the test system is HEC265. Kind of series: CFA 10-14 day clonogenic assay. As to conditions: Homo sapiens. Format: cell-based.
The target of another series is T1, RecQ1 (Homo sapiens, UniProt P46063).
T1 construct: human RecQ1-D1D2 (UniProt: P46063, Asp62–Ser482); His tag (N); made in house; host or cells: E. coli BL21(DE3), by the 'analogous procedure'
Kind of series: RecQ selectivity ATPase assay. The class given is biochemical. As to the method: (§1) DNA sequence allowing expression of human BLM-D1D2RH (UniProt P54132: Lys640–Gly1298) fused at the amino-terminal end to His tag followed by TEV-cleavage site, was inserted into a pET-derived vector. Protein expression was performed in BL21(DE3) cells after IPTG induction. Cells were collected and resuspended in lysis buffer (50 mM NaH2PO4, 300 mM NaCl, 1 mM TCEP, 20 mM imidazole, pH 8.0) supplemented with 2 mM MgCl2, benzonase and 0.5 mM AEBSF. Cells were lysed with an Emulsiflex C3 homogenizer. After ultracentrifugation, the lysate was loaded onto a HisTrap HP column. Bound protein was eluted with an imidazole gradient in lysis buffer. The amino-terminal tag was cleaved with TEV protease. Cleaved protein was loaded on Resource S ion-exchange column and eluted with a NaCl gradient in IEX buffer (20 mM Tris, 1 mM TCEP, 10% glycerol, 20 mM NaCl, pH 7.4). As a final step, BLM-D1D2RH protein was concentrated and loaded onto the Superdex 75 gel-filtration column pre-equilibrated with SEC buffer (50 mM Tris, 150 mM NaCl, 10% glycerol, pH 7.4). Eluted target protein was concentrated and frozen on dry ice. An analogous procedure was used for the expression and purification of human RecQ1-D1D2 (UniProt: P46063, Asp62–Ser482) and Human RecQ5-D1D2 (UniProt: O94762, Asp11–Trp453) proteins.
(§2) We used an ADP-Glo assay kit (Promega) to monitor ATP hydrolysis. A 45-oligonucleotide with the following sequence: […], referred to as FLAP26, as described previously[45] was purchased from IDT (Integrated DNA Technologies) and used as a DNA substrate. […] The reaction was started by addition of 2.5 μl of ssDNA substrate at 0.4 nM and incubated for 30 min at room temperature. The reaction was stopped with the addition of 5 μl of the first ADP-Glo reagent and incubated for 1 h to remove the excess amount of ATP. Then, 10 μl of ATP detection reagent was added and incubated for an additional hour before reading. The luminescence output was recorded using the Pherastar reader, with a 5 min delay before reading. Each concentration of compounds was tested in duplicates in the assay plate. The compound potency (IC50 value) was determined using custom software (Novartis Helios software application) with a four-parameter sigmoid Hill-curve model. After normalization of activity values for the wells to percentage inhibition (percentage inhibition = [(high control activity − sample activity)/(high control activity − low control activity)] × 100), IC50 fitting was performed from the duplicate determinations present on each plate.
(§3) The same ATPase assay protocol was used with the three other RecQ protein constructs to assess the selectivity over WRN. Time-course experiments were performed to determine the best enzymatic assay conditions for each RecQ protein. The experiments were run as described above with 10 nM RecQ1 protein construct with 10 nM ssDNA substrate, 2 nM BLM protein construct with 0.2 nM ssDNA substrate and 0.5 nM RecQ5 protein construct with 2 nM ssDNA substrate, respectively.

A further series concerns the target T2, RecQ5 (Homo sapiens, UniProt O94762).
T2 construct: Human RecQ5-D1D2 (UniProt: O94762, Asp11–Trp453); His tag (N); made in house; host or cells: E. coli BL21(DE3), by the 'analogous procedure'
As to the kind of experiment: RecQ selectivity ATPase assay. Format: biochemical. How it is done:
as §1, §2, §3

In the next series the target is T3, BLM (Homo sapiens, UniProt P54132).
T3 construct: human BLM-D1D2RH (UniProt P54132: Lys640–Gly1298); His tag (N, cleaved yes); made in house; host or cells: E. coli BL21(DE3)
T3 sequence (P54132 640-1298): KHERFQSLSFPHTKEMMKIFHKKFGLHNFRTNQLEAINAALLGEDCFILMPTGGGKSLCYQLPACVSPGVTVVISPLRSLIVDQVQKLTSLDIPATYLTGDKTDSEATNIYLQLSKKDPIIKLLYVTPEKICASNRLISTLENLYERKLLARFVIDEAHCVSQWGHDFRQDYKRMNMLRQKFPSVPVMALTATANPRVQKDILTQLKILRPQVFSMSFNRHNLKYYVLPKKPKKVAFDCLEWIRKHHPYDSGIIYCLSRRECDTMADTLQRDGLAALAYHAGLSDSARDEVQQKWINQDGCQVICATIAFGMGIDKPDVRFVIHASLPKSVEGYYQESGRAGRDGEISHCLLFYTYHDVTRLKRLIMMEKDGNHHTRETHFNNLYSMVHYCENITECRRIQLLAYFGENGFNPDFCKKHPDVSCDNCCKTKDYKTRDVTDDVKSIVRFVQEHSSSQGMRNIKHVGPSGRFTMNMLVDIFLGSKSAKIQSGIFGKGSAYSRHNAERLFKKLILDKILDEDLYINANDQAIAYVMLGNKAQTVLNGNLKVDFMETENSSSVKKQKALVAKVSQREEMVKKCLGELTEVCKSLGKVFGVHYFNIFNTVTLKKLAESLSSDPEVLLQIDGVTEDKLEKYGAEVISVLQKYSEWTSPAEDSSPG
As to the kind of experiment: RecQ selectivity ATPase assay. The class given is biochemical. As to the method: as §1, §2, §3

In another series the test system is CL34. As to the kind of experiment: CFA 10-14 day clonogenic assay. Format: cell-based. As to conditions: Homo sapiens.
Series [2] deals with 2313287. Kind of series: CFA 10-14 day clonogenic assay. Format: cell-based. The settings on record: Homo sapiens.
Series [3] in a line: In vitro unbound fraction. Format: in vitro ADME.
Another series has as its system SNUC2A. As to the kind of experiment: CFA 10-14 day clonogenic assay. The class given is cell-based. The settings on record: Homo sapiens.
The nature of another series: logD / logP. Format: physicochemical. The settings on record: for logD: 1-octanol/water, pH 7.4, 1-octanol and water at pH 7.4.
The next series concerns 102 common targets. Kind of series: Safety pharmacology panel. The settings on record: all except COX1.
Series [4] has as its system HEC1B. As to the kind of experiment: 4 day proliferation assay (CellTiter-Glo). The settings on record: Homo sapiens, HEC-1B, 96 h, read-out: 4 day assay GI50. A general note: Cellular ATP, detected with luciferase, serves as a proxy for viable cell number.
Series [5] deals with SNU520. Kind of series: 4 day proliferation assay (CellTiter-Glo). As to conditions: Homo sapiens, 96 h, read-out: 4 day assay GI50.
The next series deals with HEC251. As to the kind of experiment: CFA 10-14 day clonogenic assay. The class given is cell-based. The settings on record: Homo sapiens, HEC-251.
For series [6], the system named is HEC265. As to the kind of experiment: 4 day proliferation assay (CellTiter-Glo). As to conditions: Homo sapiens, 96 h, read-out: 4 day assay GI50.
Another series relates to LS180. Kind of series: 4 day proliferation assay (CellTiter-Glo). As to conditions: Homo sapiens, LS180, 96 h, read-out: 4 day assay GI50.
A further series has as its target COX1 (Homo sapiens, UniProt P23219). Kind of series: Safety pharmacology panel.
In the next series the test system is OVK18. Kind of series: CFA 10-14 day clonogenic assay. As to conditions: Homo sapiens. Format: cell-based.
The nature of another series: Rat PK. The class given is in vivo. As to the method:
PK parameters were determined by non-compartmental analysis. Intravenous bolus studies in mouse, rat and dog were performed at 1, 1 and 0.1 mg per kg respectively (Extended Data Table 1).

The subject of series [7] is SNU520. Kind of series: CFA 10-14 day clonogenic assay. The class given is cell-based. The settings on record: Homo sapiens.
In series [8] the test system is HEC1B. As to the kind of experiment: CFA 10-14 day clonogenic assay. The settings on record: Homo sapiens, HEC-1B. The class given is cell-based.
The subject of another series is Ishikawa. As to the kind of experiment: 4 day proliferation assay (CellTiter-Glo). The settings on record: Homo sapiens, 96 h, read-out: 4 day assay GI50.
For series [9], the system named is 2313287. Kind of series: 4 day proliferation assay (CellTiter-Glo). As to conditions: Homo sapiens, 96 h, read-out: 4 day assay GI50.
The subject of a further series is HEC6. Kind of series: 4 day proliferation assay (CellTiter-Glo). As to conditions: Homo sapiens, HEC-6, 96 h, read-out: 4 day assay GI50.

T1 sequence (P46063 62-482): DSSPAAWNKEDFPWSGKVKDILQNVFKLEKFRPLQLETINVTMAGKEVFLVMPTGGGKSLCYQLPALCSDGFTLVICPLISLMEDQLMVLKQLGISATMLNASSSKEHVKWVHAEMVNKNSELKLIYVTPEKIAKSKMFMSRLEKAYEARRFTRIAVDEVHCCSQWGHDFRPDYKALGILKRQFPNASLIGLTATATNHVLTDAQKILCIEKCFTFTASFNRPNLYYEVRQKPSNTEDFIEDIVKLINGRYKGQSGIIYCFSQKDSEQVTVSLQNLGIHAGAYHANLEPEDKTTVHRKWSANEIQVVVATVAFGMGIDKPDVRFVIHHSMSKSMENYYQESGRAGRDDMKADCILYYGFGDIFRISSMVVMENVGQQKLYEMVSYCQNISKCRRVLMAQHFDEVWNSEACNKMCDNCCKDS
T2 sequence (O94762 11-453): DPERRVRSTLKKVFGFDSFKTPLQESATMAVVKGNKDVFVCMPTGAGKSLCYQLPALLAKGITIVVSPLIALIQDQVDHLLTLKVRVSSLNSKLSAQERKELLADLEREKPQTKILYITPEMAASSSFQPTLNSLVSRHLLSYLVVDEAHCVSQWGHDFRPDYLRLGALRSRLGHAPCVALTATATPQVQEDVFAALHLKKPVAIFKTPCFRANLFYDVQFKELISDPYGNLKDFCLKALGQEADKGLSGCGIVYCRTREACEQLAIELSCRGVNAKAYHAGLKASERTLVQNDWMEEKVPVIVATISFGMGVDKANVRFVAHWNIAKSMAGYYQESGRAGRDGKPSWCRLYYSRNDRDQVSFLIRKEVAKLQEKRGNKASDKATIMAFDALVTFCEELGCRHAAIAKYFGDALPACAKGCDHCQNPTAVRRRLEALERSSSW
Chain of COX1 (P23219 24-599): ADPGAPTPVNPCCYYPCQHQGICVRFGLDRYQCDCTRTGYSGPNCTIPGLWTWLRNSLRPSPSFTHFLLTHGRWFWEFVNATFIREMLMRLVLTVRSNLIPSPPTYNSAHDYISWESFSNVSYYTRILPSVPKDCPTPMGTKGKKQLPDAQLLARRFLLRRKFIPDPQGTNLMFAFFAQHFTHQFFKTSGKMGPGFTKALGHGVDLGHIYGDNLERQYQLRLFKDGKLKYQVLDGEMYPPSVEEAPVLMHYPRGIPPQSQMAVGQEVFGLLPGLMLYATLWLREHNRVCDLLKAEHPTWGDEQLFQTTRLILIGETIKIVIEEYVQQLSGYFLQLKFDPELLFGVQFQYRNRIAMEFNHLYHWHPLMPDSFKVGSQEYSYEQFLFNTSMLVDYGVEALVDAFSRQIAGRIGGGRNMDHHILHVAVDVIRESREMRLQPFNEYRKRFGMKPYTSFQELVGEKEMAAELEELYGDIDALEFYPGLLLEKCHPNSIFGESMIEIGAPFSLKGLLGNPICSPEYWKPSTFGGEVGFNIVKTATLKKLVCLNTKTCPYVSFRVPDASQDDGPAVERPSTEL

With `CCc1c(N2CCN(C(=O)c3ncnc(C)c3O)CC2)c(=O)n2nc(C3=CCOCC3)nc2n1CC(=O)Nc1ccc(C(F)(F)F)cc1Cl` [HRO761], the GI50 – broadly, the concentration that inhibits growth by half – with HEC265 [1] was 61 nM; in the series on CL34, 39 nM; in the series with 2313287 [2], 2080 nM; with SNUC2A it was 25 nM; in the series with HEC1B [4] it was not below 10000 nM; in the series on SNU520 [5], not below 10000 nM. Also, the GI50 was not below 10000 nM with HEC251; not below 10000 nM with HEC265 [6]; 3500 nM with LS180; 150 nM with OVK18; 1740 nM with SNU520 [7]; not below 10000 nM in the series with HEC1B [8]. The concentration for 50% growth inhibition (GI50) in the series with Ishikawa was 228 nM; in the series with 2313287 [9], not below 10000 nM; with HEC6, 365 nM. Also, the 50% inhibitory concentration (IC50) against RecQ1, against RecQ5 and at BLM was more than 100000 nM each time. For the same molecule, in series [3], the free fraction (fraction unbound) (in general, free concentration divided by total concentration) was determined as 0.37. The logP (in general, the decadic logarithm of the partition coefficient of the neutral form, usually between octanol and water) in the series “logD / logP” is 3.4. Besides, the pH-dependent lipophilicity (logD) – broadly, the decadic logarithm of the distribution of all forms, ionised or not, between an organic phase and buffer at a given pH – in “logD / logP” is 1.8. Moreover, the “Safety pharmacology panel (102 common targets)” value in the series on 102 common targets is recorded as more than 30 μM. Moreover, at COX1, the “Safety pharmacology panel: COX1” value amounted to 9 μM. The “Rat PK, oral bioavailability (F)” value in “Rat PK” is given as 74 % F.

The molecule `CCc1c(N2CCN(C(=O)c3ncccc3O)CC2)c(=O)n2nc(C3=CCOCC3)nc2n1CC(=O)Nc1ccc(C(F)(F)F)cc1C` [compound 3] showed a logD in “logD / logP” of 2.9. Also, the “Rat PK, oral bioavailability (F)” value in “Rat PK” was found to be 20 % F.
